Earlier results in patent publication US6669955B2, “Combination dosage form containing individual dosage units of a cholesterol-lowering agent, an inhibitor of the renin-angiotensin system, and aspirin” (Longwood Pharmaceutical Research, Inc., priority 2001, dated 2003).

Key:
blood pressure = conditions: relative to angiotensin II; cited from earlier work
[1] = system: patients at risk for cardiovascular events; conditions: daily administration of low doses (approximately 80 mg); cited from earlier work

Compound	hypertensive activity, as share of that of angiotensin II (blood pressure)	reduction of second heart attacks, strokes, and cardiovascular deaths [1]
angiotensin I (DRVYIHPFHL; Angiotensin-1; UniProt P01019 25-34, looked up) [decapeptide formed by renin acting on angiotensinogen]	about 1%	–
CC(=O)Oc1ccccc1C(=O)O [aspirin, acetylsalicylic acid]	–	at least 25%
